# Measurements from patent US20220206013A1, “CYSTIC FIBROSIS URINE TEST” (Aarhus Universitet, priority 2019, published 2022).
# Legend:
# [1] = tested on: CFTR wild type, CFTR knock out and pendrin knock-out mice; conditions: WT mice; gavage 60 μmoles NaHCO3/25 g bodyweight; cumulative sample after 3 hours
# Description: The experiments were performed in littermate mice bred from heterozygotes. Mice of both genders were used at an approximate age of 2 to 4 months.
# The Pendrin KO mouse was produced by insertion of a neo-cassette replacing exon 8 in the Scl26a4 gene, leading to loss of pendrin expression as described in (Everett et al. 2001). It was purchased from The Jackson Laboratory, JAX stock #018424.
# The global CFTR (CFTRG) KO mouse (CFTR S489X-; FABP-hCFTR) was purchased from The Jackson Laboratory, JAX stock #002364. This is a transgenic global CFTR KO mouse strain with expression of human CFTR (hCFTR) under the promoter activity of rat fatty acid binding protein 2, intestinal (Fabp2) promoter, which corrects the otherwise lethal intestinal phenotype in CFTR KO mice (Zhou et al. 1994).
# Awake mice (animals as described under section A.) were manually restrained and a gavage needle was inserted into their stomach. […] Mice were then placed in metabolic cages and their urine collected for further measurement.
# Urine was sampled and accumulated for 3 hr before measurement.
# [2] = biological target: CFTR (homozygote mutation ΔF508) (Homo sapiens, UniProt P13569, DEL508-508); experiment: CF urine test (oral bicarbonate gastric load) in adult CF patients, before and after CFTR modulator drug
# Description: After 1 hr. urine samples were collected and the participant drank 200 ml of tap water. One hour later, urine samples were collected again and the participant drank further 200 ml of tap water. After three hours from the baseline the final urine sample were collected and the participants drank another 200 ml of tap water.
# Nine adult CF patients aged 19 to 45 of both genders with the homozygote mutation ΔF508 were signed up for this test.
# Three of the adult CF patients were treated with Orkambi® (400 mg lumacaftor/200 mg ivacaftor twice a day) for four weeks before testing the CF patients for a second time. These included patients of both genders between the age of 19 and 45.
# Six of the adult CF patients were treated with Symkevi® (100 mg tezacaftor and 150 mg ivacaftor in the morning and 150 mg ivacaftor in the evening) for four weeks before testing the CF patients for a second time. These included patients of both genders between the age of 20 and 40.
# Five ml of urine were given into a 250 ml glass flask.
# A two-tailed paired t-test was used to test for significance. A p-value≤0.5 was chosen to represent significance.
# At t=1 hr, the subjects were to void the first sample. […] The subjects then drank 200 mL of tap water. In addition, the venous acid-base status was checked.
# At t=2 hrs, the subjects were to void the second sample. […] The subjects then drank 200 mL of tap water.
# At t=3 hrs, the subjects were to void the third sample. […] The subjects then drank 200 mL of tap water.
# CFTR = CFTR (Homo sapiens, UniProt P13569); experiment: clinical
# Description: Twelve healthy adult volunteers aged 22 to 59 years of both genders were tested. The volunteers were healthy and without any known CFTR protein mutations.
# In addition, the venous acid-base status was checked.
# The subjects then drank 200 mL of tap water. In addition, the venous acid-base status was checked.
# The subjects then drank 200 mL of tap water.
# [3] = tested on: tubule specific CFTR (CFTR-TS) WT and KO mice; experiment: Secretin-induced urine alkalisation and urine HCO3− excretion in tubule specific CFTR WT/KO mice; assay type: in vivo, mouse
# Source text: The Renal tubule specific CFTR (CFTRTS) KO mouse was produced in the laboratory of Dr. Kunzelmann and Dr. Schreiber in Regensburg/Germany and performed in compliance with the guidelines for the welfare of experimental animals issued by the Federal Government of Germany. C57BL6/J CFTR fl10 mice (Hodges et al. 2008) were bred in a C57Bl/6J background generated by the Cre/loxP-system with tissue specific Cre-recombinase expression from the Pax8 locus (Kos 2004; Bouchard et al. 2004).
# (§1) Induction of anaesthesia was performed with i.p. injection of […] of a ketamine-xylazine mix (10 mg/ml and 1 mg/ml). An i.v. access was obtained by cannulation of one tail vein and the animals were kept in anaesthesia by a continuous rate infusion (CRI) corresponding to half of the induction dose pr. hour. Mice were infused with a solution containing 145 mM NaCl at pH 7.4 with a perfusion rate of 0.1 ml h^−1 via a syringe pump (Model 33 Twin syringe pump, Harvard Apparatus, USA).
# (§2) Bladder catheterization was introduced and urine was collected every 5 minutes. Urinary pH was measured continuously throughout the experiment by placement of a micro pH electrode (pH-200, Unisense, Aarhus, DK) in the outflow of the catheter and the reference electrode was placed into the suprapubic operation wound (see FIG. 7A). Following a 30-min. control period, mice were injected intraperitoneally with either secretin (10 μg/25 g BW) or saline.
# (§3) The urine was collected and pooled for 30 minutes allowing measurement of mean [HCO3^−] in the time periods 0-30, 30-60 and 60-90 after starting the experiment. In experiments with too low urine output, urine was pooled to allow analysis of [HCO3^−] before and after secretin application. Measurements were performed by a Corning 960 analyser (Savory et al. 1978) and calibrated to small volume samples of 50 μl or alternatively by a custom built infrared CO2-sensor based system for smaller volume samples (Trepiccione et al. 2017) (10-40 μl).
# (§4) All values are presented as mean values ±standard error of mean (SEM). Due to a low number of observations in each series, n=7 in most, we were not able to determine whether the data followed a Gaussian distribution. Therefore, two-tailed Wilcoxon matched pairs signed rank test, in paired data, and two-tailed Mann-Whitney test, in unpaired data, were performed to test for significance.
# Pendrin WT and KO mice [4] = experiment: Secretin-induced urine alkalisation and urine HCO3− excretion in anaesthetized pendrin WT/KO mice; assay type: in vivo, mouse
# Description: as §1, §2, §3, §4
# Pendrin WT and KO mice [5] = experiment: as above; assay type: in vivo, mouse; remark: listed apart in the source
# [6] = tested on: global CFTR WT and KO mice; experiment: Secretin-induced urine alkalisation and urine HCO3− excretion in global CFTR WT/KO mice; assay type: in vivo, mouse
# Description: as §1, §2, §3, §4
# [7] = 6 CF patients, pre-symkevi, oral bicarbonate load
# [8] = both, human, in vivo, po, 79 mg/kg
# Sequence of CFTR (homozygote mutation ΔF508) (P13569 with tags, fused parts or gaps DEL508-508): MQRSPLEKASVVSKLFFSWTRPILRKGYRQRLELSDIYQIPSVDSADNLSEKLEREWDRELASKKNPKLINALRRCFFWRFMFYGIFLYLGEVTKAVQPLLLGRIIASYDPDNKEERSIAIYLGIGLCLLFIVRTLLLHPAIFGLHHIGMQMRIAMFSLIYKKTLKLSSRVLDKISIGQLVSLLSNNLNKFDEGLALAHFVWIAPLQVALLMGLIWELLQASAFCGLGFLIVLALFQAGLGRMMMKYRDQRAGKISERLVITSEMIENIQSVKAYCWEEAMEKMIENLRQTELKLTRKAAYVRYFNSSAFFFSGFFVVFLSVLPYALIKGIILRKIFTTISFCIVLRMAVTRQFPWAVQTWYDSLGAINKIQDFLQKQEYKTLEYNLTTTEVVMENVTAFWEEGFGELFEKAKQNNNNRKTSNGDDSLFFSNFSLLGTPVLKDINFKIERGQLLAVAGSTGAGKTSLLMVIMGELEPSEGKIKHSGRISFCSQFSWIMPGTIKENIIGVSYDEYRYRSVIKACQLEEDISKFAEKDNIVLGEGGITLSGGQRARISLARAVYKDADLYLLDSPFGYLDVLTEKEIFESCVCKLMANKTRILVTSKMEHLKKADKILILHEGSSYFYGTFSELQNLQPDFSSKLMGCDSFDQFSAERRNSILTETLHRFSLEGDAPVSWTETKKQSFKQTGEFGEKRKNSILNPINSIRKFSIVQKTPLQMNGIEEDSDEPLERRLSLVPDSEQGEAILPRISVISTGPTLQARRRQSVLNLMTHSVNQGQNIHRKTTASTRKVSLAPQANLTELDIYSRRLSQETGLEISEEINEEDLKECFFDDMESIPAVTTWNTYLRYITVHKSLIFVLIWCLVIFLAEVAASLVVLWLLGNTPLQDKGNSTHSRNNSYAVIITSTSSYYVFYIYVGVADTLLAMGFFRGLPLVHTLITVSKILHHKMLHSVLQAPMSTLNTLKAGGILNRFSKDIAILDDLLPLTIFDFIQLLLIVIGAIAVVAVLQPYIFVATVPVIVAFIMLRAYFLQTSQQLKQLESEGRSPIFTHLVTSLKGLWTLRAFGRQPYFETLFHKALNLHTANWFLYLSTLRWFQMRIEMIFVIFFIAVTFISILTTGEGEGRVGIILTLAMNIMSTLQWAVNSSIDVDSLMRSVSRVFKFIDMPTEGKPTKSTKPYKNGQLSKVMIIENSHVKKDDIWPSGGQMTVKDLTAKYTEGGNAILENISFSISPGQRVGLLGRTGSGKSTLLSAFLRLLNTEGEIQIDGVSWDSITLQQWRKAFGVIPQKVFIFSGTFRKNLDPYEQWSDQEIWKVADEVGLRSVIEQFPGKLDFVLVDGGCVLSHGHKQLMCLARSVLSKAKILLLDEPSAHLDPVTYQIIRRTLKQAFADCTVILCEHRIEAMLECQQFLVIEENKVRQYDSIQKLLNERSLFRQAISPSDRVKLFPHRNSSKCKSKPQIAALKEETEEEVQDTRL
# Sequence of CFTR (P13569 whole entry): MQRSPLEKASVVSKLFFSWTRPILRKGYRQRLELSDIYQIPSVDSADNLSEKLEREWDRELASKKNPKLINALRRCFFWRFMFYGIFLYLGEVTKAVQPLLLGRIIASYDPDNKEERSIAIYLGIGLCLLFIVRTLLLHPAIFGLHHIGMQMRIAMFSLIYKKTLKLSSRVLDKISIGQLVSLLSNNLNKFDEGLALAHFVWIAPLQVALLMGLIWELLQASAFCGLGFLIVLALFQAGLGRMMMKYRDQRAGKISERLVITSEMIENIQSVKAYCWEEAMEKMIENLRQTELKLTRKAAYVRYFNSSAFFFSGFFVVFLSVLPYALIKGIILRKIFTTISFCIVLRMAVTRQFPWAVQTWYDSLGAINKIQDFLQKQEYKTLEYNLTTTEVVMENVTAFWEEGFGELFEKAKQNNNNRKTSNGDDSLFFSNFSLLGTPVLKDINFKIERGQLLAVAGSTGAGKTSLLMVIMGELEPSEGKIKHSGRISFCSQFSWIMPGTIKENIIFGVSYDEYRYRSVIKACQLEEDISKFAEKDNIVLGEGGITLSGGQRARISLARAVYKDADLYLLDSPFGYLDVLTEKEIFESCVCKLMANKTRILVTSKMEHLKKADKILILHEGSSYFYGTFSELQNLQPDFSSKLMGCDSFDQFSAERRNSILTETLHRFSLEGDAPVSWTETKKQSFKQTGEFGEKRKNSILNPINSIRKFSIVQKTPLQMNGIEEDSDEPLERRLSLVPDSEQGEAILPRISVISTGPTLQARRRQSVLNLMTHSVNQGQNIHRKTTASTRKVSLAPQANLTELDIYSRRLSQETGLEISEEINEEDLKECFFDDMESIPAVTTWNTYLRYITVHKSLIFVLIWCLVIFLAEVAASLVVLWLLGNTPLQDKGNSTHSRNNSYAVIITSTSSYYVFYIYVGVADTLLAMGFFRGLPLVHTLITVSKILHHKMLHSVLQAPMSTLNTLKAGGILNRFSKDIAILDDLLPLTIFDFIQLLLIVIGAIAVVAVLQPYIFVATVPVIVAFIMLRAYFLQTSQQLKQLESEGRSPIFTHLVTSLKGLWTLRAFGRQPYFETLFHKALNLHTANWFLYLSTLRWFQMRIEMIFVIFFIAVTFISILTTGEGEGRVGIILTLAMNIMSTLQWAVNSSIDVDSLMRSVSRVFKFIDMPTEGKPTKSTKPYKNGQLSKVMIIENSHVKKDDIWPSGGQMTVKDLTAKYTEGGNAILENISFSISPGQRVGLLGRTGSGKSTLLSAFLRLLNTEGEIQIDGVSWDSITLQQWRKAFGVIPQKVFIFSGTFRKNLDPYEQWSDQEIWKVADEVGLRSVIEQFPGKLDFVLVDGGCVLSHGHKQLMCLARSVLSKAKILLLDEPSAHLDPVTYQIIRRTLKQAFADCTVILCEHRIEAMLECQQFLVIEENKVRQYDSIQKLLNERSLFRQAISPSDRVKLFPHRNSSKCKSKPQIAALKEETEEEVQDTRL
compound,measurement,setting,value
"O=C(O)O [bicarbonate, NaHCO3]",urine bicarbonate concentration and urine pH,[1],found to increase
same,AUC0-3 of excreted bicarbonate,[2]; [7],22-45 mmol bicarbonate*t/L
same,peak value of urine bicarbonate (t=2 hrs),[2]; [7],11 to 28 mM
same,AUC0-3 of excreted bicarbonate,"[2]; CF patients before treatment with Orkambi, oral bicarbonate load",14-58 mmol bicarbonate *t/L
same,Cmax,[2]; [8],14000 to 28000 µM
same,Tmax,"[2]; both, human, in vivo, po, 79 mg/kg BW",2 h
same,Cmax,CFTR; [8],45000 to 65000 µM
same,Tmax,CFTR; [8],2 h
same,AUC0-3 of excreted bicarbonate,"CFTR; healthy controls, oral 79 mg/kg BW NaHCO3, FIG. 5E",85-123 mmol bicarbonate *t/L
secretin,pHu effect vs control experiments,"[3]; CFTR-TS KO mice, FIG. 11B",no significant effect
same,urine [HCO3−] and urine HCO3− excretion rate,[3]; CFTRTS KO mice,No significant secretin-induced differences
same,peak mean urinary alkalisation,"[3]; tubule specific CFTR WT mice, 10 μg/25 g BW i.p., n=7, FIG. 11A",0.6518±0.11
same,"urine HCO3− excretion rate, mean difference vs baseline","[3]; tubule specific CFTR WT mice, 60 minutes after secretin treatment, data not shown",5.623 ± 2.2 nmol/h/kg
same,urine [HCO3−] change after secretin administration,"[3]; tubule specific CFTR WT mice, highest in first 30 minutes",pronounced increase
same,pHu alkalisation,"Pendrin WT and KO mice [4]; pendrin KO mice, 10 μg/25 g BW i.p., FIG. 9B",no significant pHu alkalisations
same,urinary HCO3− excretion vs vehicle,"Pendrin WT and KO mice [4]; pendrin KO mice, data not shown",No differences
same,urinary [HCO3−] vs vehicle,"Pendrin WT and KO mice [4]; pendrin KO mice, n=7, FIG. 9D",No differences
same,late pHu effect,"Pendrin WT and KO mice [4]; pendrin KO mice, starting some 20 minutes post-injection",urinary acidification
same,peak mean urinary alkalisation,"Pendrin WT and KO mice [4]; pendrin WT mice, 10 μg/25 g BW i.p., n=7, FIG. 9A",0.397±0.1 pH units
same,peak pHu increase,"Pendrin WT and KO mice [4]; pendrin WT mice, 10 μg/25 g BW secretin i.p., FIG. 8C",~0.38 units
same,urinary [HCO3−],"Pendrin WT and KO mice [4]; pendrin WT mice, 60 minutes following injection, vehicle 0.1697 ±0.1 mM, FIG. 9C",1.08 ± 0.3 mM
same,urine HCO3− excretion rate,"Pendrin WT and KO mice [4]; pendrin WT mice, 60 minutes post secretin injection, vehicle 1.18±0.57",5.61±2.06 nmol/h/g BW
same,pHu change,Pendrin WT and KO mice [5]; dose of 0.1 μg i.p.,significant increase
same,pHu change with dose,"Pendrin WT and KO mice [5]; doses of 1, 5 and 10 μg i.p.",increasing pHu alkalisations
same,HCO3− excretion rate and urine [HCO3−] vs starting or control,"[6]; global CFTR KO mice, at any point during the experiment, FIG. 10D",No significant differences
same,peak difference of pHu vs pH prior to treatment,"[6]; global CFTR KO mice, peak 20 min post secretin, n=7, not differing from vehicle treated KO mice",0.13 pH units
same,peak mean urinary alkalisation,"[6]; global CFTR WT mice, 10 μg/25 g BW i.p., n=6, FIG. 10A",0.53±0.24 pH units
same,urinary [HCO3−] increase vs control group (Δ30 minutes),"[6]; global CFTR WT mice, FIG. 10C",3.02 ± 1.06 mM
same,ΔHCO3− excretion rate vs control,"[6]; global CFTR WT mice, after 60 min, not reaching significance (p=0.09)",5.55±3.25 nmol/h/g BW
